Laboratory results published in BindingDB's records for patent US12180196 (Hoffmann-La Roche, 2024).

Target: Cannabinoid receptor 2 (Homo sapiens, UniProt P34972)
Assay: Radioligand Binding Assay
Procedure: The affinity of the compounds of the invention for cannabinoid CB1 receptors was determined using recommended amounts of membrane preparations (PerkinElmer) of human embryonic kidney (HEK) cells expressing the human CNR1 or CNR2 receptors in conjunction with 1.5 or 2.6 nM [3H]-CP-55,940 (Perkin Elmer) as radioligand, respectively. Binding was performed in binding buffer (50 mM Tris, 5 mM MgCl2, 2.5 mM EDTA, and 0.5% (wt/vol) fatty acid free BSA, pH 7.4 for CB1 receptor and 50 mM Tris, 5 mM MgCl2, 2.5 mM EGTA, and 0.1% (wt/vol) fatty acid free BSA, pH 7.4 for CB2 receptor) in a total volume of 0.2 ml for 1 h at 30° C. shaking. The reaction was terminated by rapid filtration through microfiltration plates coated with 0.5% polyethylenimine (UniFilter GF/B filter plate; Packard). Bound radioactivity was analyzed for Ki using nonlinear regression analysis (Activity Base, ID Business Solution, Limited), with the Kd values for [3H]CP55,940 determined from saturation experiments. The compounds of formula (I) show an excellent affinity for the CB2 receptor.

Chain of Cannabinoid receptor 2 (P34972 whole entry): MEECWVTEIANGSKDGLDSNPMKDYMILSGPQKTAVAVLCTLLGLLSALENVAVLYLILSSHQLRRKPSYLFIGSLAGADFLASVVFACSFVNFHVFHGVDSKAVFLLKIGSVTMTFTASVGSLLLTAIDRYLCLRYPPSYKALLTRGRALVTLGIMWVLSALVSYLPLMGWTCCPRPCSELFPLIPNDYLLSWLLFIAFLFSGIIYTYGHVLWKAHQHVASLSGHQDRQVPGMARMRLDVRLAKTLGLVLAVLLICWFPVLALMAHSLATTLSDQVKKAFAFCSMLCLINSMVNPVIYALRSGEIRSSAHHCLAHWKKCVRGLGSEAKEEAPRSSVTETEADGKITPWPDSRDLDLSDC

- Ki: 0.014 µM
SMILES: CCOC(=O)C(CC)(CC)NC(=O)c1ccc(N2CC(OCF)C2)c(OCC2CC2)n1 [US12180196, Example 3]
